Assay [1] can be described thus: Inhibition of T. cruzi Tulahuen strain amastigotes in L-6 muscle cells Measured in Cell-Based and Microorganism Combination System Using Plate Reader - 2138-03_Inhibitor_Dose_CherryPick_Activity. It counts as functional. The following applies: Rattus norvegicus, L6.
The nature of assay [2]: cytotoxicity in L-6 rat myocytes, dose response, cytotoxicity control, cell-based, plate reader, cherry-pick (AID 651896). The class given is functional.
Assay [3] is described as follows: Inhibition of Plasmodium falciparum NF54 Measured in Cell-Based System Using Plate Reader - 2138-11_Inhibitor_Dose_CherryPick_Activity. The class given is functional.
A short description of assay [4]: L. donovani amastigote growth inhibition, dose response, axenic amastigotes, plate reader, cherry pick (AID 651891). It counts as functional, cell-based. The following applies: Leishmania donovani.
Assay [5] in a line: intracellular Trypanosoma cruzi inhibitors in host cells – cell-based, plate reader, cherry-pick samples, set 3, dose response (AID 651818).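 Further: compounds incubated with infected cells for about four days.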 It counts as functional.
Assay [6] can be described thus: T. b. rhodesiense proliferation inhibition, dose response, STIB900 strain, plate reader, cherry pick (AID 651893). The class given is functional, cell-based. The settings on record: Trypanosoma brucei.
A short description of assay [7]: T. cruzi growth inhibition in host cells, dose response, cell-based, plate reader, dry powder, set 2 (AID 652275). The class given is functional.
Assay [8] can be described thus: growth inhibition of intracellular T. cruzi, dose response, cell-based, plate reader, dry powder samples (AID 651845). The class given is functional.
Assay [9] in a line: T. cruzi intracellular amastigote growth inhibition, dose response, imaging, CA-I/72 strain, bovine embryo skeletal muscle, dry powder (AID 651885). The class given is functional, cell-based.
Assay [10] concerns the target Heat shock protein HSP90 (Homo sapiens, UniProt P07900+P08238). Kind of assay: tumor Hsp90 inhibitor potency, dose response (AID 712). The class given is functional.
In assay [11] the target is T1, Mannose-6-phosphate isomerase (Homo sapiens, UniProt P34949).
T1 sequence (P34949 whole entry): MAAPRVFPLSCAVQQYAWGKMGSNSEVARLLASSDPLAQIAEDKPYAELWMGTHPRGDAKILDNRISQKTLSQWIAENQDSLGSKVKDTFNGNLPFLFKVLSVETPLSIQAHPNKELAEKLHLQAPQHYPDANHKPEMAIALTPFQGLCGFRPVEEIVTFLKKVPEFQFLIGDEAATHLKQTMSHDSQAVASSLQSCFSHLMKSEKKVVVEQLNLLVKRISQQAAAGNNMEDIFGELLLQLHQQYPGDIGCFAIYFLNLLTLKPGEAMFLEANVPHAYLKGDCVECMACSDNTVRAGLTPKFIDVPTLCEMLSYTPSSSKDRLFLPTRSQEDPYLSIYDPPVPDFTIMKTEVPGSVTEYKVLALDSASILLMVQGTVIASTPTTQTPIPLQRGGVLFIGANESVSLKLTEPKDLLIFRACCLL
Kind of assay: human PMI inhibitors, high substrate, primary screen, biochemical, fluorescence intensity, high mannose 6-phosphate (AID 1220).

Assay [12] is described as follows: HeLa 2N DNA content increase, dose response, cell-based, IC50 (AID 1117349). The class given is functional.
Assay [13] can be described thus: HeLa 4N DNA content increase, dose response, cell-based, IC50 (AID 1117351). The class given is functional.
Assay [14] has as its target T2, Induced myeloid leukemia cell differentiation protein Mcl-1 (Homo sapiens, UniProt Q07820). Briefly: MCL1-BIM BH3 interaction inhibitors, dose response, biochemical, fluorescence polarization, BIM-BH3 peptide, 1536-well (AID 2217). (In fluorescence polarisation assays a small probe gives low polarisation when free and higher when bound to something large.)
In assay [15] the target is Bcl-2-like protein 1 (Homo sapiens, UniProt Q07817). Briefly: BCL-XL inhibitors, dose response, selectivity assay for MCL1 inhibitor project, biochemical, fluorescence polarization, 1536-well (AID 2218).
The target in assay [16] is T3, Carboxy-terminal domain RNA polymerase II polypeptide A small phosphatase 1 (Homo sapiens, UniProt Q9GZU7).
T3 sequence (Q9GZU7 whole entry): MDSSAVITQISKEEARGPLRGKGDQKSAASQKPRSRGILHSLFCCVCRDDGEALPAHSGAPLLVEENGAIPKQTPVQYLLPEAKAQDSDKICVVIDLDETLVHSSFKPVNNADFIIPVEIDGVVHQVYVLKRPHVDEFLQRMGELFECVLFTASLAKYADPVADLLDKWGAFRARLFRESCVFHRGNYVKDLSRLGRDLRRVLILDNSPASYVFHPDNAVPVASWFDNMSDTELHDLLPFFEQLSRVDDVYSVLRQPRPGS
Kind of assay: inhibitors of CTDSP1, concentration-response testing, biochemical assay, absorbance-based, actives from ultra-high-throughput screening (AID 540297). The class given is functional.

The target of assay [17] is T4, Caspase-6 (Homo sapiens, UniProt P55212).
T4 sequence (P55212 whole entry): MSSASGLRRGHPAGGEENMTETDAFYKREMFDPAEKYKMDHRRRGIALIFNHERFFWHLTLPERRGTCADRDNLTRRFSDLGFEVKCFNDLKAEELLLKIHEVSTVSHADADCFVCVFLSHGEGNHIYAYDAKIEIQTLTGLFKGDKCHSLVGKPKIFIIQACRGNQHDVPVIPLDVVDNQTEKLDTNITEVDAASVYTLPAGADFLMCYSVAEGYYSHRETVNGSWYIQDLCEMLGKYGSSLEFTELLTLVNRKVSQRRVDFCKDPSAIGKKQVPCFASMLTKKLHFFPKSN
Kind of assay: human caspase-6 inhibitors, dose response, biochemical, VEID-R110 fluorescence, cherry-pick (AID 720632).

Assay [18] addresses Caspase-7 (Homo sapiens, UniProt P55210). Briefly: human caspase-7 inhibitors, dose response, selectivity assay for caspase-6 inhibitor project, biochemical, DEVD-R110 fluorescence, cherry-pick (AID 743295). The class given is […].
In assay [19] the target is Caspase-8 (Homo sapiens, UniProt Q14790). Briefly: caspase-8 inhibition counter-screen, dose response, selectivity assay for caspase-6 inhibitor project, biochemical, Z-IETD-R110 fluorescence, cherry-picked samples (AID 743294).
Assay [20] has as its target Protein Tat (Human immunodeficiency virus type 1 group M subtype B (isolate HXB2)(HIV-1), UniProt P04608). The class given is functional.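 Further: tat binding to TAR RNA read out by fluorescence polarization.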
Assay [21] deals with E3 ubiquitin-protein ligase Mdm2 (Homo sapiens, UniProt Q00987). Kind of assay: enhancers of MDM2-luciferase reporter signal, concentration-effect titration, project on inhibitors of MDM2 ubiquitin ligase, cellular assay, luminescent readout, 384-well plate format (AID 1394).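 Further: MDM2 E3 inhibitors raise luminescence so EC50 is for signal enhancement.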 The class given is functional. On the technique in general: In a reporter assay the amount or activity of a reporter protein is the signal.

A short description of assay [22]: Shn3 3'UTR reporter inhibitors, dose response, cell-based, Clone20 osteoblasts, firefly luciferase, cherry-picked (AID 624132).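 Further: firefly luciferase luminescence from reporter carrying the Shn3 3'UTR in osteoblasts.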 The class given is functional.
The nature of assay [23]: control 3'UTR Renilla luciferase suppression, dose response, counter-screen for Shn3 inhibitor project, cell-based, Clone20-Shn3RL, cherry-picked (AID 624133). It counts as functional. On the technique in general: Counterscreens check selectivity or assay interference.
Assay [24] is described as follows: HEK293T cell cytotoxicity, dose response, cytotoxicity control for HIV Vif inhibitor project, cherry-picks (AID 652208). It counts as functional, cell-based.
Assay [25] addresses Estrogen receptor beta (Homo sapiens, UniProt Q92731). Briefly: ERβ–SRC-3 coactivator interaction inhibitors, confirmation, orthogonal assay, biochemical, ELISA, streptavidin-HRP readout (AID 1060).
The target of assay [26] is Ephrin type-A receptor 4 (Mus musculus, UniProt Q03137). Kind of assay: inhibitors of EphA4 binding to KYL peptide, primary screen, biochemical, colorimetric, mouse EphA4 (AID 689). It counts as functional.
Assay [27] addresses T2, Induced myeloid leukemia cell differentiation protein Mcl-1. The class given is functional.
The target in assay [28] is T5, Tyrosine-protein phosphatase non-receptor type 7 (Homo sapiens, UniProt P35236).
T5 sequence (P35236 whole entry): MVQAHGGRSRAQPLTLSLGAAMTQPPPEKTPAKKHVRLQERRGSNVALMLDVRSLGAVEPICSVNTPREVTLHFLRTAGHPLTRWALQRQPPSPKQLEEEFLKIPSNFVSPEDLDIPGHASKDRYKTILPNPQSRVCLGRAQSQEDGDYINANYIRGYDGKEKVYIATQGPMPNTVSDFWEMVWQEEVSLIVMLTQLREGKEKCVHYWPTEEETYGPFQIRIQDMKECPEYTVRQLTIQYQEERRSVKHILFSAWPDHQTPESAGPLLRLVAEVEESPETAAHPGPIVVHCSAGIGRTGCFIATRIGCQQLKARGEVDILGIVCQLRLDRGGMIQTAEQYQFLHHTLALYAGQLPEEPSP
Kind of assay: redox-dependent HePTP inhibition, mechanism study, biochemical, fluorescence (AID 2068). It counts as functional.

The nature of assay [29]: M. tuberculosis growth inhibition, HTS (AID 449762). It counts as functional.
Assay [30] in a line: microbe, parasite or virus in culture. The class given is functional. The settings on record: Mycobacterium tuberculosis.

Usually IC50 stands for the midpoint of a concentration-inhibition curve. As a reminder, the AC50 is the concentration giving half of the maximal activity seen. What is called EC50 is the concentration needed to bring the measured effect to its halfway point.

Each structure is given as a SMILES string. The source made the active and inactive calls. A value given as a limit tells only on which side of the number the result lay.

T2 sequence (Q07820 whole entry): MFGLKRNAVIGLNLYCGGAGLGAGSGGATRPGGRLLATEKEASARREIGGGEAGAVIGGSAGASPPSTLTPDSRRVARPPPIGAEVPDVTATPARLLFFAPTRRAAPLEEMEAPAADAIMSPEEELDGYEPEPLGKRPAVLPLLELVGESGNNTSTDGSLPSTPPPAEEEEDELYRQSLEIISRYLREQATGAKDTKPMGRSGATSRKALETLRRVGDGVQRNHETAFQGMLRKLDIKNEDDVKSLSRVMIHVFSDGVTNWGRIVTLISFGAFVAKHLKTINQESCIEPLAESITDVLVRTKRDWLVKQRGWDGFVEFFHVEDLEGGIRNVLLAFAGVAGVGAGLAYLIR
Caspase-8, sequence (Q14790 217-374 limits assumed): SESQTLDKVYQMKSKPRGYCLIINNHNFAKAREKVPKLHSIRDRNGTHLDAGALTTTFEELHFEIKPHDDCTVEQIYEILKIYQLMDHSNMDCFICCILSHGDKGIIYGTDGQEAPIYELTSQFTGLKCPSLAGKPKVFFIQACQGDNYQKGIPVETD
Caspase-8, sequence (Q14790 385-479 limits assumed): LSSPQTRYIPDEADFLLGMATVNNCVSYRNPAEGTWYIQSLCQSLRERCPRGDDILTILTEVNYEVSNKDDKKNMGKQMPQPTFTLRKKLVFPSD
Bcl-2-like protein 1, sequence (Q07817 whole entry, the tested form may be a part): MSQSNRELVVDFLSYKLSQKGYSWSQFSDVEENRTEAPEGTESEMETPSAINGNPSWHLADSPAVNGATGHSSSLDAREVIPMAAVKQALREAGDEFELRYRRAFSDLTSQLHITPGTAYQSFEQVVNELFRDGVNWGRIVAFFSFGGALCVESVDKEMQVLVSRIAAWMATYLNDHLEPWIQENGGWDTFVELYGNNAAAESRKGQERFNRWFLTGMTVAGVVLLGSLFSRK
E3 ubiquitin-protein ligase Mdm2, sequence (Q00987 whole entry): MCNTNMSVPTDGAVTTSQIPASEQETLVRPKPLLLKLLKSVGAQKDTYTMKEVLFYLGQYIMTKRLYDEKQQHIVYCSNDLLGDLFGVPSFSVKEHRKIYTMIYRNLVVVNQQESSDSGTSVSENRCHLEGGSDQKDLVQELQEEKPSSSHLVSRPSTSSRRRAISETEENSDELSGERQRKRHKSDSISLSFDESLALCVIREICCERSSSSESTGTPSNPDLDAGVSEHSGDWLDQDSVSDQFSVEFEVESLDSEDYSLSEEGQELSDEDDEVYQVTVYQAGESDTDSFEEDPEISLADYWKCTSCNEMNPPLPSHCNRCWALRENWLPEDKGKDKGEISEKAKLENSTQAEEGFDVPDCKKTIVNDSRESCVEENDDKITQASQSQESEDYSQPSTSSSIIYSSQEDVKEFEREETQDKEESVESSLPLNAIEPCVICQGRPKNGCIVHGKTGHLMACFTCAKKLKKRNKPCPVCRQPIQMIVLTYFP
Estrogen receptor beta, sequence (Q92731 whole entry): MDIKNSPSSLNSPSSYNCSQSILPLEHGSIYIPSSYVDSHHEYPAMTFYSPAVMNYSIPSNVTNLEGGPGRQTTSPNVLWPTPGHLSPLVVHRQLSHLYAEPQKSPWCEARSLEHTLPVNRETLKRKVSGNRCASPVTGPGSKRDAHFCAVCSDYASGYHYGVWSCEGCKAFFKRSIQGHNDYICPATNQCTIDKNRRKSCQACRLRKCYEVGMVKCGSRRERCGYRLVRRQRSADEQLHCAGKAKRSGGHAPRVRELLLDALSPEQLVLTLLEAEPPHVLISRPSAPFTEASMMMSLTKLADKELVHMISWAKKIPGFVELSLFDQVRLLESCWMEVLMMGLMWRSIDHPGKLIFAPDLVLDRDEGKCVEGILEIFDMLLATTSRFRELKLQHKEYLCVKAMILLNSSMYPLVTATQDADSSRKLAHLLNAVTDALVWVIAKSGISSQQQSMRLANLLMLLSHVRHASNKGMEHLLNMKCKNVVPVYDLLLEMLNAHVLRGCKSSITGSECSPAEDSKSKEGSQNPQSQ
Caspase-7, sequence (P55210 24-198 limits assumed): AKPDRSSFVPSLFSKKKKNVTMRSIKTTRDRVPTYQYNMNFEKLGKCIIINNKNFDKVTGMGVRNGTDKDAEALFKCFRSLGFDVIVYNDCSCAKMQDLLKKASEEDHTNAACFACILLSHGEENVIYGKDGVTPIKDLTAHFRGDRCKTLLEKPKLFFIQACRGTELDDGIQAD
Caspase-7, sequence (P55210 207-303 limits assumed): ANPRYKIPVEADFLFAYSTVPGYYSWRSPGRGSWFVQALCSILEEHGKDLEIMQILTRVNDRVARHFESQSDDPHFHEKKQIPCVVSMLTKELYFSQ
Ephrin type-A receptor 4, sequence (Q03137 whole entry): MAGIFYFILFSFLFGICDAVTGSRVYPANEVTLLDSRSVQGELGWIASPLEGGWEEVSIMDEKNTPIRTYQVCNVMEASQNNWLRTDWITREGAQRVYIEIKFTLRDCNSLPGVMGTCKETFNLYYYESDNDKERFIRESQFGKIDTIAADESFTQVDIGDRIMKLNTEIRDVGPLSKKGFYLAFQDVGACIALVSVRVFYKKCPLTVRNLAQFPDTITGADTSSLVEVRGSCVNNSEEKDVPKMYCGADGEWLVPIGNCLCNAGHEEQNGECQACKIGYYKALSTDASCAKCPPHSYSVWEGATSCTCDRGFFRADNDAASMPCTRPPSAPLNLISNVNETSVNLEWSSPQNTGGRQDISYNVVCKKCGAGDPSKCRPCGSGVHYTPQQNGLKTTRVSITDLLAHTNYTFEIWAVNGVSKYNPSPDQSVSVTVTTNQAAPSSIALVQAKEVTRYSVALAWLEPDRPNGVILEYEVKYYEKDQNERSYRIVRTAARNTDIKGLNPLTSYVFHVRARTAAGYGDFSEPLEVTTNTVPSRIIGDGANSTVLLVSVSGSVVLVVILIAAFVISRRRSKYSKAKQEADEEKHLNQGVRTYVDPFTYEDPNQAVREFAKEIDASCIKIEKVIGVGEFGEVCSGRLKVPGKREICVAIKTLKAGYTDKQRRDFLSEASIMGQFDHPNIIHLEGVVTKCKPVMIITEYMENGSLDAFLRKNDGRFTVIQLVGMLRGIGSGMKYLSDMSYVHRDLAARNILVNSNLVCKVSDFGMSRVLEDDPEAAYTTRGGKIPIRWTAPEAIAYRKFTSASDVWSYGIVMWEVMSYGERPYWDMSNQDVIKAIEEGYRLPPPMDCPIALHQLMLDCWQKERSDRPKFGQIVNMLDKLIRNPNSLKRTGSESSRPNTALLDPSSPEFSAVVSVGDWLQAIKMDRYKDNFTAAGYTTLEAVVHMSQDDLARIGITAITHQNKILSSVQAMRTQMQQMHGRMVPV
Protein Tat, sequence (P04608 whole entry): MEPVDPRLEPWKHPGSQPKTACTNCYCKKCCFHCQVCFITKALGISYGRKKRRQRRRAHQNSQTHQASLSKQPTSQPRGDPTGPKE

Regarding `COc1ccc(CN(C)C[C@H]2Oc3c(NC(=O)c4ccncc4)cccc3C(=O)N([C@@H](C)CO)C[C@@H]2C)cc1`, the IC50 in [1] is 8.41 µM (inactive); in assay [2], > 100 µM (inactive); in assay [3] it was 8.41 µM (inactive); in [4], > 100 µM (inactive); in assay [6] it was 15.4 µM (inactive); in [9], 0.478 µM (active). In addition, the AC50 was 0.25 µM (active) in [5], 0.127 µM (active) in assay [7] and 0.127 µM (active) in assay [8].
Turning to `CCOC(=O)c1c(C)oc2c1c(/C=N/CC1CCCO1)c(O)c1ccccc12` (stereo not given), the values for the IC50 in assay [10] and in assay [11] were 13.307 µM and > 50 µM (not active), respectively.
Turning to `COC(=O)Nc1nc2cc(C(=O)c3ccccc3)ccc2[nH]1` [MEBENDAZOLE], the concentration for half-maximal inhibition (IC50) in assay [12] was 0.0761 µM (active); in assay [13], 0.08 µM (active).
Consider `Cc1ccc(C)c(NC(=O)CN(C)C(=O)c2cccc(-n3cccc3)c2)c1`, for which the IC50 in assay [14] is 10.9 µM (not active); in [15], > 109 µM (not active); in assay [16], 6.04 µM (active); in assay [20] it was > 100 µM (active). For the same compound, the AC50 in [17] is 4.58 µM (active); in assay [18], > 70 µM (inactive); in assay [19] it was > 70 µM (inactive).
In the case of `COc1ccc(-c2cc(C(F)(F)F)nc(S(=O)(=O)CCCC(=O)Nc3cccnc3Cl)n2)cc1OC`, the half-maximal effective concentration (EC50) in assay [21] is recorded as 25 µM (not active). For the same compound, the AC50 in [22] was 3.17 µM (active); in assay [23], 13.8 µM (active); in [24], 11.6 µM (active).
As to `O=C(NCc1ccccc1)c1ccc2nc(-c3ccco3)c(-c3ccco3)nc2c1`, the half-inhibitory concentration (IC50) in assay [25] is < 0.023 µM (not active); in assay [26] it was 11.1 µM (active); in assay [27], 4.26 µM (active); in [28], 3.99 µM (active).
As for `O=C(CSc1n[nH]c(-c2ccccc2)n1)Nc1ccc(Br)cn1`, in assay [29], the IC50 is > 100 µM (active). The CC50 in [30] was > 40 µM (active).

(Values after ChEMBL document CHEMBL1201862, “PubChem BioAssay data set” (2004).)
